These results are taken from publication PMC10449817, “Different solubilizing ability of cyclodextrin derivatives for cholesterol in Niemann–Pick disease type C treatment” (Clinical and Translational Medicine, 2023).

What is called pEC50 is the EC50 on a negative log10 scale, so that one unit is a factor of ten.

pEC50: −log10 of the molar value.

Series [1] has as its system Npc1‐null Chinese hamster ovary cells. The experiment in a line: Measurement of intracellular cholesterol in NPC model cells. As to conditions: 24 h exposure; for pEC50: concentrations up to 1 mM, read-out: EC50, reduction of UC levels accumulated in Npc1‐null cells. It counts as cell-based. As for the experimental part: WT and Npc1‐null Chinese hamster ovary cells developed previously[34] were used. The cells were grown in a culture medium consisting of a 1:1 mixture of Dulbecco's modified Eagle's medium (DMEM) and F‐12 (Life Technologies) supplemented with 10% fetal bovine serum (FBS; Thermo Fisher Scientific, Inc.). The cells were maintained at 37°C in a saturated humidity atmosphere of 95% air and 5% CO2.
The measurement of intracellular cholesterol levels was performed in accordance with our previously developed method[35] with minor modification. Cells were pre‐incubated for 24 h and then exposed to a medium containing CD derivatives for 24 h. Thereafter, the cells were lysed, and aliquots were taken for cholesterol and protein measurements. Cholesterol was extracted from the cell lysate using chloroform, 2‐propanol and NP‐40 substitute (7:11:0.1), and the solution was then centrifuged (15 000 × g, 10 min, 4°C). The chloroform layer was evaporated, and the residues were dissolved in a solvent consisting of 2‐propanol, polyoxyethylene alkyl ether and polyoxyethylene lauryl ether (87:10:3). The dissolved samples were divided into two portions—one was incubated with esterase to measure total cholesterol (TC), and the other was incubated without esterase to measure UC. The cholesterol content was measured with a Determiner L FC kit. The EC level was calculated by deducting the UC level from the TC level. Intracellular cholesterol content was normalized by the total protein concentration as determined with a Pierce BCA Protein Assay Kit (Thermo Fisher Scientific, Inc.).

Series [2] relates to WT mice. Put plainly: Auditory brainstem response (ABR) after CD derivatives in mice. As to conditions: 1 week after, 4-32 kHz. The format is in vivo. As for the experimental part:
(§1) Male and female Npc1 homozygous mutant (BALB/cNctr‐Npc1 ^m1N, Npc1 ^−/−) mice,[36] kindly donated by Prof. Kousaku Ohno and Dr. Katsumi Higaki, were used as a murine model of NPC. Age‐matched WT mice were used as controls. The mice were bred and housed under specific pathogen‐free conditions in the Center for Animal Resources and Development, Kumamoto University. The mice were housed in cages in a room under controlled temperature (24°C) and a 12/12‐h light/dark cycle, and provided with free access to food and water. The animal experiments were performed at the Department of Clinical Chemistry and Informatics, Graduate School of Pharmaceutical Sciences, Kumamoto University. CD derivatives were dissolved in distilled water, and the osmotic pressure was adjusted with sodium chloride to near physiological osmolality. The pH was adjusted to 7.4 using sodium hydroxide, and the solution was filtered with an Advantec DISMIC‐13CP 0.45‐μm filter (Toyo Roshi Kaisha, Ltd.). Intracerebroventricular administration was performed using stereotaxic instruments (IMPACT‐1000C and KDS 310 Plus; Muromachi Kikai Co., Ltd.) under anaesthesia (medetomidine:midazolam:butorphanol, 0.3:4.0:5.0 mg/kg, intraperitoneally). The subcutaneous injection volume was 20 mL/kg for all experimental groups. The survival times were recorded based on the day when the endpoint was reached, defined as death or the inability to consume food or drink independently.
Auditory thresholds were measured using auditory brainstem response (ABR) System 3 (Tucker‐Davis Technologies). The animals were anaesthetized by intraperitoneal administration of xylazine and ketamine‐HCl in saline. Electrodes were placed beneath the pinna of the treated ear and at the vertex just below the surface of the skin, and the ground electrode was then placed under the contralateral ear. An average of 512 sweeps was calculated at 4, 8, 12, 20 and 32 kHz. The stimulus levels near the threshold were varied in 5‐dB steps, and the threshold was defined as the lowest level at which waves in the ABR could be clearly detected by visual inspection.

The next series concerns α‐glucosidase. The following applies: cited from earlier work.
A short description of series [3]: UC solubility analysis; binding constants of 1:1 and 2:1 CD:UC complexes. The format is physicochemical. The following applies: as a function of CD concentration, 37°C. As for the experimental part: An excess of UC (10 mg) was added to each concentration of CD derivative in distilled water and shaken at 37°C for 3 h at 180 rpm. After equilibrium was attained (Figure S1), an aliquot was filtered through a Millex‐HP PES 0.45‐μm filter (Merck Millipore Ltd.). The filtrate was mixed and shaken for 10 min with an appropriate volume of chloroform/methanol (2:1, v/v). After centrifugation (1500 × g, 10 min, 4°C), the chloroform phase was recovered and evaporated. The residue was dissolved in a solvent consisting of 2‐propanol, polyoxyethylene alkyl ether and polyoxyethylene lauryl ether (87:10:3), and the concentration of UC was measured with a Determiner L FC kit (Kyowa Hakko Kirin Co., Ltd.) on a microplate reader (Tecan Group, Ltd.). Three replicate samples were performed. The binding constants of the 1:1 and the 2:1 CD:UC complexes were calculated according to a previously established method.[26]

Series [4] concerns Npc1 homozygous mutant (Npc1 ^−/−) mice. The experiment in a line: Intracerebroventricular administration of CD derivatives in NPC model mice. It counts as in vivo. As to conditions: ICV 21.4 μmol/kg once at 4 weeks of age. As for the experimental part:
as §1, with “Intracerebroventricular administration was performed using stereotaxic instruments (IMPACT‐1000C and KDS 310 Plus; Muromachi Kikai Co., Ltd.) under anaesthesia (medetomidine:midazolam:butorphanol, 0.3:4.0:5.0 mg/kg, intraperitoneally). The subcutaneous injection volume was 20 mL/kg for all experimental groups.” left out
Organ samples were fixed in 4% buffered paraformaldehyde immediately after collection and then embedded in paraffin. […] Histopathological changes were photographed and analyzed by microscopy (BioRevo BZ‐9000; Keyence Co.). […]

Series [5] relates to WT mice. The experiment in a line: Systemic biocompatibility of subcutaneous CD derivatives in mice. It counts as in vivo. As to conditions: SC 5.7 mmol/kg, 24 h later. As for the experimental part: as §1, with “Intracerebroventricular administration was performed using stereotaxic instruments (IMPACT‐1000C and KDS 310 Plus; Muromachi Kikai Co., Ltd.) under anaesthesia (medetomidine:midazolam:butorphanol, 0.3:4.0:5.0 mg/kg, intraperitoneally). The subcutaneous injection volume was 20 mL/kg for all experimental groups.” left out
Organ samples were fixed in 4% buffered paraformaldehyde immediately after collection and then embedded in paraffin. […] Histopathological changes were photographed and analyzed by microscopy (BioRevo BZ‐9000; Keyence Co.).

As for 2‐hydroxypropyl‐γ‐CD [HP‐γ‐CD], the pEC50 in series [1] was 4.16. Also, the ABR threshold entry in the series with WT mice [2] (single SC 5.7 mmol/kg) is on record as “only a moderate increase”.
Take mono‐6‐O‐α‐maltosyl‐β‐CD [G2‐β‐CD]: the pEC50 in series [1] was 4.25. In addition, the “biodegradation to G1‐β‐CD in whole blood” value in the series with α‐glucosidase is given as “rapidly biodegraded”.
As to 2‐hydroxybutyl‐β‐CD [HB‐β‐CD], in series [1], the pEC50 is 4.94.
Take 2‐hydroxypropyl‐α‐CD [HP‐α‐CD]: in series [3], the “UC solubilization profile in aqueous solution” value is “negligible”. Also, in series [1] (Npc1‐null cells, above 0.1 mM), the EC/TC ratio result was “significantly diminished”. Further, in series [1] (Npc1‐null cells, concentration‐dependent, 1 mM), the “intracellular UC levels” value is listed as “significantly diminished”. Also, the ABR threshold result in the series on WT mice [2] (single ICV 21.4 μmol/kg) and in the series with WT mice [2] (single SC 5.7 mmol/kg) was “did not cause any change” in each case.
Consider mono‐6‐O‐α‐glucosyl‐γ‐CD [G1‐γ‐CD], for which the pEC50 in series [1] was 3.81.
As for 2‐hydroxybutyl‐γ‐CD [HB‐γ‐CD], the pEC50 in series [1] was 4.94. Also, in series [4], the body weight decline result was “mitigated”; the “lifespan and median survival time” value is given as “drastically prolonged”. In addition, the “total protein concentration in BALF” value in the series with WT mice [5] is “significant increases”.
On to mono‐6‐O‐α‐glucosyl‐β‐CD [G1‐β‐CD], for which the pEC50 in series [1] was 4.22.
Turning to “2‐hydroxypropyl‐β‐CD [HP‐β‐CD, reference compound]”, the pEC50 in series [1] is 4.39. Further, the ABR threshold entry with WT mice [2] (single SC 5.7 mmol/kg) was “significantly increased”.
As for mono‐6‐O‐α‐maltosyl‐γ‐CD [G2‐γ‐CD], the pEC50 in series [1] is 3.74.
